Legend:
Lymphs = experiment: Peptidases to distinguish leukemia from non-leukemia, lymphocytes; assay type: cell-based, human; parameters: unit not given here
Text: (§1) Artificial intelligence was used to analyze data of cellular enzyme functions, and determine normal and disease states. Peptidases were used to distinguish leukemia from non-leukemia (output pattern). For input patterns lymphocyte and granulocyte cell types were used with aminopeptidases, cathepsins and dipeptidylpeptidase enzyme activities. In this Example, illustrated in Tables 6A-6C, three normals and three leukemia patients were used as known output patterns for the neural network to learn (in practice, the larger the learning set the more accurate unknown prediction will be). Unknowns were then presented to the learned algorithm as shown in the test case examples. Clinical diagnosis was confirmed by physicians. The trained neural network was able to correctly classify the leukemia from the non-leukemia.

Grans = experiment: Peptidases to distinguish leukemia from non-leukemia, granulocytes; assay type: cell-based, human; parameters: unit not given here
Text: as §1

SMILES: C[C@H](N)C(=O)Nc1ccc2c(c1)Oc1cc(NC(=O)[C@H](C)N)ccc1C21OC(=O)c2ccccc21 [ALA, (Ala)2 Rho 110]
- enzyme activity (Lymphs; J4 11/21/91 acute leuk.): 86.00
- enzyme activity (Lymphs; J4 12/2/91 AL): 68.10
- enzyme activity (Lymphs; J4 12/3/91 acute leuk.): 74.64
- enzyme activity (Lymphs; J5 11/27/91 AML): 92.44
- enzyme activity (Lymphs; J19 11/27/91 CLL): 47.78
- enzyme activity (Lymphs; J22 12/2/91 AML): 84.42
- enzyme activity (Lymphs; J22 12/9/91 AML): 83.48
- enzyme activity (Lymphs; N99° normal): 91.07
- enzyme activity (Lymphs; N191 normal): 95.72
- enzyme activity (Lymphs; N192 normal): 103.31
- enzyme activity (Lymphs; N193 normal): 100.50
- enzyme activity (Lymphs; N194 normal): 97.02
- enzyme activity (Lymphs; N195 normal): 118.81
- enzyme activity (Lymphs; N197 normal): 96.36
- enzyme activity (Lymphs; N200 normal): 101.38
- enzyme activity (Lymphs; N201 normal): 106.72
- enzyme activity (Lymphs; N202 normal): 118.37
- enzyme activity (Lymphs; N206 normal): 122.71
- enzyme activity (Lymphs; P68 tachycardia): 1471.10
- enzyme activity (Lymphs; P69 pancreatic CA): 130.34
- enzyme activity (Lymphs; P70 cirrhosis/hemobilia): 141.87
- enzyme activity (Lymphs; P71 ac. pyelonephritis): 109.26
- enzyme activity (Grans; J4 11/21/91 acute leuk.): 193.43
- enzyme activity (Grans; J4 12/2/91 AL): 139.53
- enzyme activity (Grans; J4 12/3/91 acute leuk.): 138.89
- enzyme activity (Grans; J5 11/27/91 AML): 194.85
- enzyme activity (Grans; J19 11/27/91 CLL): 143.11
- enzyme activity (Grans; J22 12/2/91 AML): 157.12
- enzyme activity (Grans; J22 12/9/91 AML): 157.48
- enzyme activity (Grans; N99° normal): 157.30
- enzyme activity (Grans; N191 normal): 177.32
- enzyme activity (Grans; N192 normal): 154.84
- enzyme activity (Grans; N193 normal): 178.64
- enzyme activity (Grans; N194 normal): 164.00
- enzyme activity (Grans; N195 normal): 221.28
- enzyme activity (Grans; N197 normal): 188.20
- enzyme activity (Grans; N200 normal): 171.06
- enzyme activity (Grans; N201 normal): 206.06
- enzyme activity (Grans; N202 normal): 201.17
- enzyme activity (Grans; N206 normal): 232.57
- enzyme activity (Grans; P68 tachycardia): 276.07
- enzyme activity (Grans; P69 pancreatic CA): 204.02
- enzyme activity (Grans; P70 cirrhosis/hemobilia): 236.23
- enzyme activity (Grans; P71 ac. pyelonephritis): 185.37

SMILES: NC(=O)CC[C@H](N)C(=O)N[C@@H](CO)C(=O)Nc1ccc2c(c1)Oc1cc(NC(=O)[C@H](CO)NC(=O)[C@@H](N)CCC(N)=O)ccc1C21OC(=O)c2ccccc21 [QS, (H--L--Gln--Ser)2 Rho 110-2TFA]
- enzyme activity (Lymphs; J4 11/21/91 acute leuk.): 0.05
- enzyme activity (Lymphs; J4 12/2/91 AL): 0.01
- enzyme activity (Lymphs; J4 12/3/91 acute leuk.): 0.06
- enzyme activity (Lymphs; J5 11/27/91 AML): 0.07
- enzyme activity (Lymphs; J19 11/27/91 CLL): 0.06
- enzyme activity (Lymphs; J22 12/2/91 AML): 0.02
- enzyme activity (Lymphs; J22 12/9/91 AML): 0.02
- enzyme activity (Lymphs; N99° normal): 0.02
- enzyme activity (Lymphs; N191 normal): 0.02
- enzyme activity (Lymphs; N192 normal): 0.03
- enzyme activity (Lymphs; N193 normal): 0.03
- enzyme activity (Lymphs; N194 normal): 0.02
- enzyme activity (Lymphs; N195 normal): 0.04
- enzyme activity (Lymphs; N197 normal): 0.06
- enzyme activity (Lymphs; N200 normal): 0.01
- enzyme activity (Lymphs; N201 normal): 0.02
- enzyme activity (Lymphs; N202 normal): 0.01
- enzyme activity (Lymphs; N206 normal): 0.04
- enzyme activity (Lymphs; P68 tachycardia): 0.02
- enzyme activity (Lymphs; P69 pancreatic CA): 0.31
- enzyme activity (Lymphs; P70 cirrhosis/hemobilia): 0.04
- enzyme activity (Lymphs; P71 ac. pyelonephritis): 0.05
- enzyme activity (Grans; J4 11/21/91 acute leuk.): 0.22
- enzyme activity (Grans; J4 12/2/91 AL): 0.44
- enzyme activity (Grans; J4 12/3/91 acute leuk.): 0.19
- enzyme activity (Grans; J5 11/27/91 AML): 1.24
- enzyme activity (Grans; J19 11/27/91 CLL): 1.16
- enzyme activity (Grans; J22 12/2/91 AML): 0.10
- enzyme activity (Grans; J22 12/9/91 AML): 0.24
- enzyme activity (Grans; N99° normal): 0.05
- enzyme activity (Grans; N191 normal): 0.19
- enzyme activity (Grans; N192 normal): 0.15
- enzyme activity (Grans; N193 normal): 0.14
- enzyme activity (Grans; N194 normal): 0.07
- enzyme activity (Grans; N195 normal): 0.21
- enzyme activity (Grans; N197 normal): 0.24
- enzyme activity (Grans; N200 normal): 0.06
- enzyme activity (Grans; N201 normal): 0.09
- enzyme activity (Grans; N202 normal): 0.08
- enzyme activity (Grans; N206 normal): 0.27
- enzyme activity (Grans; P68 tachycardia): 0.33
- enzyme activity (Grans; P69 pancreatic CA): 0.37
- enzyme activity (Grans; P70 cirrhosis/hemobilia): 0.19
- enzyme activity (Grans; P71 ac. pyelonephritis): 0.51

SMILES: NCCCC[C@H](N)C(=O)Nc1ccc2c(c1)Oc1cc(NC(=O)[C@@H](N)CCCCN)ccc1C21OC(=O)c2ccccc21 [LYS, (H--L--Lys)2 Rho 110-4TFA]
- enzyme activity (Lymphs; J4 11/21/91 acute leuk.): 0.77
- enzyme activity (Lymphs; J4 12/2/91 AL): 1.81
- enzyme activity (Lymphs; J4 12/3/91 acute leuk.): 1.64
- enzyme activity (Lymphs; J5 11/27/91 AML): 5.71
- enzyme activity (Lymphs; J19 11/27/91 CLL): 0.98
- enzyme activity (Lymphs; J22 12/2/91 AML): 0.74
- enzyme activity (Lymphs; J22 12/9/91 AML): 1.20
- enzyme activity (Lymphs; N99° normal): 0.33
- enzyme activity (Lymphs; N191 normal): 1.18
- enzyme activity (Lymphs; N192 normal): 0.56
- enzyme activity (Lymphs; N193 normal): 0.52
- enzyme activity (Lymphs; N194 normal): 0.93
- enzyme activity (Lymphs; N195 normal): 1.07
- enzyme activity (Lymphs; N197 normal): 0.70
- enzyme activity (Lymphs; N200 normal): 0.90
- enzyme activity (Lymphs; N201 normal): 1.05
- enzyme activity (Lymphs; N202 normal): 0.71
- enzyme activity (Lymphs; N206 normal): 1.65
- enzyme activity (Lymphs; P68 tachycardia): 1.51
- enzyme activity (Lymphs; P69 pancreatic CA): 1.22
- enzyme activity (Lymphs; P70 cirrhosis/hemobilia): 1.02
- enzyme activity (Lymphs; P71 ac. pyelonephritis): 0.91
- enzyme activity (Grans; J4 11/21/91 acute leuk.): 3.01
- enzyme activity (Grans; J4 12/2/91 AL): 4.09
- enzyme activity (Grans; J4 12/3/91 acute leuk.): 3.19
- enzyme activity (Grans; J5 11/27/91 AML): 14.86
- enzyme activity (Grans; J19 11/27/91 CLL): 4.41
- enzyme activity (Grans; J22 12/2/91 AML): 1.41
- enzyme activity (Grans; J22 12/9/91 AML): 1.90
- enzyme activity (Grans; N99° normal): 0.95
- enzyme activity (Grans; N191 normal): 1.20
- enzyme activity (Grans; N192 normal): 1.20
- enzyme activity (Grans; N193 normal): 1.43
- enzyme activity (Grans; N194 normal): 1.56
- enzyme activity (Grans; N195 normal): 2.53
- enzyme activity (Grans; N197 normal): 1.59
- enzyme activity (Grans; N200 normal): 1.46
- enzyme activity (Grans; N201 normal): 2.06
- enzyme activity (Grans; N202 normal): 13.22
- enzyme activity (Grans; N206 normal): 3.11
- enzyme activity (Grans; P68 tachycardia): 3.09
- enzyme activity (Grans; P69 pancreatic CA): 2.14
- enzyme activity (Grans; P70 cirrhosis/hemobilia): 2.33
- enzyme activity (Grans; P71 ac. pyelonephritis): 4.17

SMILES: C[C@@H](O)[C@H](N)C(=O)N1CCC[C@H]1C(=O)Nc1ccc2c(c1)Oc1cc(NC(=O)[C@@H]3CCCN3C(=O)[C@@H](N)[C@@H](C)O)ccc1C21OC(=O)c2ccccc21 [TP]
- enzyme activity (Lymphs; J4 11/21/91 acute leuk.): 2.30
- enzyme activity (Lymphs; J4 12/2/91 AL): 1.46
- enzyme activity (Lymphs; J4 12/3/91 acute leuk.): 1.18
- enzyme activity (Lymphs; J5 11/27/91 AML): 1.32
- enzyme activity (Lymphs; J19 11/27/91 CLL): 0.50
- enzyme activity (Lymphs; J22 12/2/91 AML): 0.99
- enzyme activity (Lymphs; J22 12/9/91 AML): 1.02
- enzyme activity (Lymphs; N99° normal): 1.86
- enzyme activity (Lymphs; N191 normal): 2.14
- enzyme activity (Lymphs; N192 normal): 2.12
- enzyme activity (Lymphs; N194 normal): 1.82
- enzyme activity (Lymphs; N195 normal): 1.90
- enzyme activity (Lymphs; N197 normal): 1.96
- enzyme activity (Lymphs; N200 normal): 2.39
- enzyme activity (Lymphs; N201 normal): 1.88
- enzyme activity (Lymphs; N202 normal): 2.49
- enzyme activity (Lymphs; N206 normal): 2.89
- enzyme activity (Lymphs; P68 tachycardia): 1.90
- enzyme activity (Lymphs; P69 pancreatic CA): 2.26
- enzyme activity (Lymphs; P70 cirrhosis/hemobilia): 1.89
- enzyme activity (Lymphs; P71 ac. pyelonephritis): 1.86
- enzyme activity (Grans; J4 11/21/91 acute leuk.): 5.96
- enzyme activity (Grans; J4 12/2/91 AL): 2.59
- enzyme activity (Grans; J4 12/3/91 acute leuk.): 1.93
- enzyme activity (Grans; J5 11/27/91 AML): 2.72
- enzyme activity (Grans; J19 11/27/91 CLL): 2.95
- enzyme activity (Grans; J22 12/2/91 AML): 2.33
- enzyme activity (Grans; J22 12/9/91 AML): 2.51
- enzyme activity (Grans; N99° normal): 3.71
- enzyme activity (Grans; N191 normal): 4.73
- enzyme activity (Grans; N192 normal): 4.62
- enzyme activity (Grans; N193 normal): 4.96
- enzyme activity (Grans; N194 normal): 3.77
- enzyme activity (Grans; N195 normal): 3.74
- enzyme activity (Grans; N197 normal): 3.82
- enzyme activity (Grans; N200 normal): 4.69
- enzyme activity (Grans; N201 normal): 4.23
- enzyme activity (Grans; N202 normal): 4.44
- enzyme activity (Grans; N206 normal): 5.98
- enzyme activity (Grans; P68 tachycardia): 4.63
- enzyme activity (Grans; P69 pancreatic CA): 4.21
- enzyme activity (Grans; P70 cirrhosis/hemobilia): 4.02
- enzyme activity (Grans; P71 ac. pyelonephritis): 4.37
